Laboratory results taken from the supplement of paper PMC10307832.

Experiments:
Assay in all cases: relative viability (nuclei count vs DMSO), 5 days (fraction); higher = more cells survive
[1] = compound: C1/C(=C\C2=CC=CS2)/C(=O)/C(=C/C3=CC=CS3)/C1 + Cc1cc(Nc2cc(N3CCN(C)CC3)nc(Sc3ccc(NC(=O)C4CC4)cc3)n2)n[nH]1 [Tozasertib] (partner 0.1 µM)
Method in brief: (§1)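 Lung cancer cell lines in 1536-well plates were dosed by pin tool the day after seeding, either with one drug alone or with a fixed anchor-drug dose plus five library-drug doses (not always all listed) in √10 steps. After 5 days, cells were fixed and their nuclei stained in one step (final 0.05% Triton X-100, 1% formaldehyde, 1 ug/ml Hoechst), then counted on 4× images. Relative viability is the nuclei count in treated wells divided by that in vehicle wells. Values are medians of duplicate plates.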

[2] = compound: C[C@]12O[C@H](C[C@]1(O)CO)n1c3ccccc3c3c4c(c5c6ccccc6n2c5c31)CNC4=O [Lestaurtinib] + CS(=O)(=O)N1CCN(Cc2cc3nc(-c4cccc5[nH]ncc45)nc(N4CCOCC4)c3s2)CC1 [Pictilisib] (partner 1 µM)
Method in brief: as §1

[3] = compound: C[C@]12O[C@H](C[C@]1(O)CO)n1c3ccccc3c3c4c(c5c6ccccc6n2c5c31)CNC4=O [Lestaurtinib] + CC(C)C[C@H](NC(=O)[C@H](Cc1ccccc1)NC(=O)c1cnccn1)B(O)O [Bortezomib] (partner 0.002 µM)
Method in brief: as §1

Lestaurtinib + Olaparib = compound: C[C@]12O[C@H](C[C@]1(O)CO)n1c3ccccc3c3c4c(c5c6ccccc6n2c5c31)CNC4=O [Lestaurtinib] + O=C(c1cc(Cc2n[nH]c(=O)c3ccccc23)ccc1F)N1CCN(C(=O)C2CC2)CC1 [Olaparib] (partner 8 µM)
Method in brief: as §1

| Cell Line | relative viability ([1]; first compound 0.2 µM) | relative viability ([1]; first compound 0.6325 µM) | relative viability ([1]; first compound 2 µM) | relative viability ([1]; first compound 6.325 µM) | relative viability ([1]; first compound 20 µM) | relative viability ([2]; first compound 0.005 µM) | relative viability ([2]; first compound 0.01581 µM) | relative viability ([2]; first compound 0.05 µM) | relative viability ([2]; first compound 0.1581 µM) | relative viability ([2]; first compound 0.5 µM) | relative viability ([3]; first compound 0.005 µM) | relative viability ([3]; first compound 0.01581 µM) | relative viability ([3]; first compound 0.05 µM) | relative viability ([3]; first compound 0.1581 µM) | relative viability ([3]; first compound 0.5 µM) | relative viability (Lestaurtinib + Olaparib; first compound 0.005 µM) | relative viability (Lestaurtinib + Olaparib; first compound 0.01581 µM) | relative viability (Lestaurtinib + Olaparib; first compound 0.05 µM) | relative viability (Lestaurtinib + Olaparib; first compound 0.5 µM) | relative viability (Lestaurtinib + Olaparib; first compound 0.1581 µM) |
| --- | --- | --- | --- | --- | --- | --- | --- | --- | --- | --- | --- | --- | --- | --- | --- | --- | --- | --- | --- | --- |
| NCI-H727 | 0.725 | 0.619 | 0.627 | 0.478 | 0.536 | 0.396 | 0.566 | 0.278 | 0.409 | 0.229 | 0.862 | 1.42 | 0.752 | 0.76 | 0.291 | 0.812 | 0.604 | 0.731 | 0.678 |  |
| HARA | 0.121 | 0.123 | 0.116 | 0.101 | 0.0981 | 0.356 | 0.451 | 0.334 | 0.187 | 0.179 | 1.21 | 1.33 | 1 | 0.671 | 0.179 | 1.03 | 0.899 | 0.441 | 0.237 | 0.886 |
| NCI-H2228 | 0.239 | 0.235 | 0.246 | 0.145 | 0.261 | 0.461 | 0.551 | 0.332 | 0.325 | 0.198 | 0.994 | 0.805 | 0.629 | 0.476 | 0.185 | 0.644 | 0.455 | 0.318 | 0.137 | 0.432 |
| LCLC-97TM1 | 0.239 | 0.233 | 0.227 | 0.213 | 0.195 | 0.197 | 0.163 | 0.138 | 0.139 | 0.125 |  | 0.723 | 0.299 | 0.282 | 0.226 |  | 0.456 | 0.299 | 0.188 | 0.185 |
| LC-2-ad | 0.452 | 0.461 | 0.448 | 0.429 | 0.429 | 0.369 | 0.333 | 0.204 | 0.167 | 0.113 | 0.966 | 1.2 | 0.882 | 0.407 | 0.329 | 0.82 | 0.823 | 0.832 | 0.28 | 0.55 |
| SK-LU-1 | 0.329 | 0.385 | 0.419 | 0.271 | 0.36 | 0.464 | 0.464 | 0.297 | 0.436 | 0.246 | 0.975 | 1.26 | 0.763 | 0.673 | 0.362 | 0.431 | 0.397 | 0.382 | 0.218 | 0.362 |
| EKVX | 0.405 | 0.452 | 0.329 | 0.424 | 0.394 | 0.518 | 0.461 | 0.442 | 0.571 | 0.387 | 1.1 | 1.26 | 0.999 | 1.19 | 0.679 | 0.941 |  | 0.947 | 0.641 | 1.07 |
| HCC-827 | 0.414 | 0.405 | 0.441 | 0.44 | 0.503 | 1.13 | 0.8 | 0.896 | 0.833 | 0.388 | 0.923 | 1.08 | 0.989 | 1.11 | 0.647 | 0.585 | 0.654 | 0.665 | 0.484 | 0.508 |
| NCI-H650 | 0.857 | 0.716 | 0.675 | 0.689 | 0.786 | 0.816 | 0.818 | 0.63 | 0.399 | 0.332 | 0.651 | 1.03 | 0.678 | 0.452 | 0.314 | 0.43 | 0.413 | 0.382 | 0.28 | 0.319 |
| CAL-12T | 0.334 | 0.32 | 0.356 | 0.256 | 0.309 | 0.392 | 0.716 | 0.388 | 0.413 | 0.292 | 0.806 | 1.27 | 0.888 | 0.794 | 0.618 | 0.837 | 0.767 | 0.877 | 0.344 | 0.802 |
| NCI-H2342 | 0.521 | 0.567 | 0.561 | 0.443 | 0.459 |  |  |  |  |  |  |  |  |  |  | 0.44 | 0.432 | 0.439 | 0.501 | 0.43 |
| SW 900 | 0.514 | 0.567 | 0.558 | 0.618 | 0.584 |  |  |  |  |  |  |  |  |  |  | 0.92 | 1.12 | 0.958 | 1.07 | 1.34 |
| IA-LM |  |  |  |  |  | 0.547 | 0.691 | 0.725 | 0.642 | 0.198 | 1.08 | 1.18 | 1.08 | 0.943 | 0.339 | 0.835 | 0.944 | 0.991 | 0.774 | 0.819 |
| EPLC-272H | 0.293 | 0.325 | 0.322 | 0.283 | 0.287 | 0.292 | 0.318 | 0.212 | 0.286 | 0.305 | 1.02 | 1.15 | 0.603 | 0.828 | 0.486 | 0.58 | 0.53 | 0.503 | 0.108 | 0.359 |
| A-427 | 0.185 | 0.22 | 0.248 | 0.176 | 0.216 | 0.769 | 0.668 | 0.461 | 0.239 | 0.101 | 0.98 | 1.05 | 0.835 | 0.446 | 0.212 | 0.802 | 0.745 | 0.712 | 0.315 | 0.485 |
| NCI-H647 | 0.382 | 0.379 | 0.296 | 0.271 | 0.238 | 0.413 | 0.289 | 0.197 | 0.193 | 0.105 | 0.994 | 0.828 | 0.276 | 0.244 | 0.133 | 0.67 | 0.67 | 0.186 | 0.108 | 0.211 |
| NCI-H1975 | 0.71 | 0.742 |  | 0.678 | 0.699 | 0.275 | 0.252 | 0.205 | 0.217 | 0.171 | 0.467 | 0.368 | 0.345 | 0.318 | 0.217 | 0.802 | 0.856 | 0.651 | 0.408 | 0.757 |
